Results reported in article PMC10384675, “Novel Thiazolidine-2,4-dione-trimethoxybenzene-thiazole Hybrids as Human Topoisomerases Inhibitors” (Pharmaceuticals, 2023).

Assays:
caspase-8 = assay: Caspase-Glo assay, caspase-8; format: cell-based, human; conditions: MCF-7 cells, at IC50 value, 24 h, vs vehicle
Procedure: Once established that mitochondria were damaged and cyt c released into the cytoplasm, we evaluated the ability of compound 7e treatment (used at its IC50 value) in modulating caspase activity.
The caspase-Glo Assay (Caspase-Glo® 3/7, 8 and 9 Assay Systems, Promega Corporation, Madison, WI) was used to detect caspase-3/7, -8 and -9 activities, as reported in [82]. Briefly, cells were grown in white-walled 96-well plates, treated with the compound, and 100 µL of each […] was added.
Figure 7 Caspase activity in MCF-7 cells. […] Columns mean, bars SD; * p < 0.001; n.s., not significant (treated vs. CTRL).

A2058 melanoma cells = assay: MTT cell viability assay, A2058; format: cell-based; conditions: Homo sapiens, 72 h
Procedure: All of the synthesized compounds (7a–f) were studied to test their anticancer activity toward the estrogen receptor-positive (ER+) MCF-7 and the triple-negative MDA-MB-231 breast cancer cells (ER-, PR- and HER-2/Neu not overexpressed) and A2058 melanoma cells. Cells were incubated for 72 h with different concentrations of the compounds, and then the viability was checked by the MTT assay. […] Moreover, we checked the cytotoxicity of all of the synthesized compounds against the human MCF-10A non-malignant breast epithelial cells and mouse BALB/3T3 embryonic fibroblasts, in order to evaluate their selectivity on cancer cells.
The used cell lines (breast cancer cell lines MCF-7 and MDA-MB-231, melanoma cell line A2058 and human mammary epithelial cell line MCF-10A) were obtained from American Type Culture Collection (ATCC, Manassas, VA, USA) and cultured as already reported. The mouse BALB/3T3 embryonic fibroblasts were also purchased from American Type Culture Collection (ATCC, Manassas, VA, USA) and cultured in DMEM high glucose supplemented with 10% bovine calf serum (BCS) and 100 U mL^−1 penicillin/streptomycin.
MTT assay (Sigma Aldrich (St. Louis, MO, USA)) was performed for evaluating the in vitro anticancer activities of the compounds, as previously indicated. Different concentrations (0.1, 1, 10, 25, 50, and 100 μM) of the compounds were employed, with a 72 h endpoint. IC50 values were obtained from the percent (%) of control using GraphPad Prism 9 (GraphPad Software, La Jolla, CA, USA).

hTopo I = molecular target: T1, hTopo I (Homo sapiens, UniProt P11387); assay: hTopo I relaxation assay; format: biochemical; design: key to Topoisomerase Inhibition hTopo I: (+) inhibition; (−) no inhibition; (+/−) partial inhibition; conditions: 10 µM
T1 construct: purchased TopoGEN, Port Orange, FL, USA
T1 sequence (P11387 1-765): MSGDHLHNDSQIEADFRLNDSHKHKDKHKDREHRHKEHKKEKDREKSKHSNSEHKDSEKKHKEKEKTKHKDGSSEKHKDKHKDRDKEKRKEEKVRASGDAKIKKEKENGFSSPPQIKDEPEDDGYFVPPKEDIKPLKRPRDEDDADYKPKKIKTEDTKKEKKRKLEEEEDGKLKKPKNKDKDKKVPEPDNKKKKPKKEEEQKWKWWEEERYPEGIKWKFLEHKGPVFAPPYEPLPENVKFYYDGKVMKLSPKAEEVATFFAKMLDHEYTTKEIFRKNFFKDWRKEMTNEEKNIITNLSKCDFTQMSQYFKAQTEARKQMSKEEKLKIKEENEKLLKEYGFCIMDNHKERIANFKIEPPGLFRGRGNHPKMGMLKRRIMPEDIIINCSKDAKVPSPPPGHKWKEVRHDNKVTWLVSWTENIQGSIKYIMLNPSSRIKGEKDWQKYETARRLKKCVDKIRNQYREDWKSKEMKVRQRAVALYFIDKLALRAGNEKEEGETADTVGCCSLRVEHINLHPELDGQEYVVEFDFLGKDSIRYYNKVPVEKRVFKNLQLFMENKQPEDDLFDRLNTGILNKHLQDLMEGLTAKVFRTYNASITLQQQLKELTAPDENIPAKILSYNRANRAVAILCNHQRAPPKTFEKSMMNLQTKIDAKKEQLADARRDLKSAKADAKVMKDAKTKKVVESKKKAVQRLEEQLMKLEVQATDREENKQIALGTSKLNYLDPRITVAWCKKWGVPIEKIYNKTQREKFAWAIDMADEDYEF
Description: Thiazoles and their derivatives are extensively recognized as chemical nuclei of great interest for producing molecules with multiple biological properties. In particular, several compounds bearing these heterocycles were studied for their capability to interfere with DNA topoisomerases (Topos), ubiquitous enzymes essential in several key cellular processes. In recent years, these enzymes have become popular targets in cancer therapy; indeed, the topoisomerase inhibitors can induce damage to genome integrity. Consequently, the inhibition of topoisomerases leads to cell death by apoptosis and, thus, is fatal. Thus, we carried out two specific tests in vitro for both of the Topos, namely the hTopo I relaxation and the hTopo II decatenation assays. For the hTopo I relaxation assay, we exposed the enzyme to the most interesting compounds, 7b–7e, at the final concentration of 10 µM for 1 h at 37 °C, using as substrate the supercoiled pHOT1 (see Section 4 Materials and Methods for more details). […] Contrarily, in the CTRL lane, where the hTopo I was exposed to only vehicle (DMSO), several bands due to pHOT1 DNA cleavage were present (Figure 3, lane C). […] In Figure 3, panel B, the hTopo I inhibition results using ellipticine, as reference molecule are shown. […] An electrophoretic mobility shift of the pHOT1 DNA was also noticeable, due to the intercalating properties of ellipticine.
hTopo I relaxation assays were performed by incubating the substrate (supercoiled pHOT1) with the recombinant hTopo I (TopoGEN, Port Orange, FL, USA) and compounds, as indicated in the supplier protocol (TopoGEN, Port Orange, FL, USA), with some revisions. hTopo II decatenation assays were conducted by incubating the kinetoplast DNA substrate (kDNA) with the hTopo II (TopoGEN, Port Orange, FL) and studied compounds, as indicated in the supplier procedures (TopoGEN, Port Orange, FL, USA), with some changes as in [80].
Figure 3 hTopo I relaxation assay. Plasmid pHOT1, used as substrate, was incubated with hTopo I with or without the studied compounds 7b–7e (10 µM concentration), panel (A), and with or without ellipticine (10 and 50 µM concentration), panel (B). Lane A, relaxed DNA marker; lane B, pHOT1 supercoiled DNA, lane C, CTRL (DMSO), lane D–G, compounds 7b–7e 10 µM, respectively. Lane 1, pHOT1 supercoiled DNA; lane 2, CTRL (DMSO), lanes 3–4, ellipticine 10 and 50 µM, respectively.

caspase-8 activity (caspase-8): no change
IC50 (A2058 melanoma cells): 8.4 ± 0.9 µM
Topoisomerase Inhibition hTopo I (hTopo I): −
hTopo I activity inhibition (in words) (hTopo I; 1 h, 37 °C, supercoiled pHOT1): able to inhibit hTopo I activity
Compound: COc1cc(/C=C2\SC(=O)N(CC(=O)Nc3nc(-c4ccc(Br)cc4)cs3)C2=O)cc(OC)c1OC [compound 7e, (Z)-2-(5-(3,4,5-Trimethoxybenzylidene)thiazolidin-2,4-dion-3-yl)-N-(4-(4-bromophenyl)thiazol-2-yl)acetamide]
